Results taken from patent US12252524B2, “GIP/GLP1 co-agonist compounds” (Eli Lilly and Company, priority 2018, dated 2025).
Numbered stars: 1 amine (or outer) side, 2 acyl side, 3 side chain; on linkers, the order of the positions; unused ones are H or OH. Square brackets hold non-standard residues; d marks the D form. Side chains are listed from the residue outwards. Peptide text beside a SMILES is read from it. * marks the point of attachment. C20 diacid = O=C(O)CCCCCCCCCCCCCCCCCCC(=O)*; γGlu = O=C(O)[C@H](CCC(=O)[*:2])N[*:1]; αMeF = C[C@](N)(Cc1ccccc1)C(=O)O; αMeL = CC(C)C[C@](C)(N)C(=O)O; AEEA = NCCOCCOCC(=O)O; Aib = CC(C)(N)C(=O)O

Legend:
[1] = biological target: T1, human Gcg receptor (Homo sapiens, UniProt P47871); experiment: [125I]-Glucagon binding (SPA), human Gcg receptor; settings: read-out: hGLcgR Ki, nM (SEM, n)
T1 construct: expressed in transfected cells; crude membranes
T1 sequence (P47871 26-477): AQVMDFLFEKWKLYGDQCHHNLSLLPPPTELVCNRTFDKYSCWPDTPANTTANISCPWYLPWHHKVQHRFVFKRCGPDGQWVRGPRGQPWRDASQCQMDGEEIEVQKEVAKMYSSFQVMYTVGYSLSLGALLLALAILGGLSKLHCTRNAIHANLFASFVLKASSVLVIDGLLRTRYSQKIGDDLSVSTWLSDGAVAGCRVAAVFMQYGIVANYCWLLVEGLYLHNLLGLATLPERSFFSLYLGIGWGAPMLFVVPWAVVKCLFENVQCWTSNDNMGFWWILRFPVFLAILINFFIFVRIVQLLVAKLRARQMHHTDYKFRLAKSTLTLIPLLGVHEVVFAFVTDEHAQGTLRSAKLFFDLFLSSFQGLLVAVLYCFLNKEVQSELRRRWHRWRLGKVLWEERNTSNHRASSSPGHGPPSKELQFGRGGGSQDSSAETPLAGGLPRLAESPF
Outline: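 Cell pellets were lysed in hypotonic Tris buffer, pH 7.5, homogenized, and spun at low then high speed to give crude membranes. Ki was derived from the fitted IC50.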

[2] = biological target: human GLP-1 receptor (GLP-1R) (Homo sapiens, UniProt P43220); experiment: cAMP pharmacological functional assay in presence of casein, hGLP-1R; format: cell-based; settings: HEK293 cells expressing hGLP-1R, 0.1% Casein, geometric mean; read-out: hGLP1R cAMP Rel EC50 nM (SEM, n)
Chain of human GLP-1 receptor (GLP-1R) (P43220 24-463): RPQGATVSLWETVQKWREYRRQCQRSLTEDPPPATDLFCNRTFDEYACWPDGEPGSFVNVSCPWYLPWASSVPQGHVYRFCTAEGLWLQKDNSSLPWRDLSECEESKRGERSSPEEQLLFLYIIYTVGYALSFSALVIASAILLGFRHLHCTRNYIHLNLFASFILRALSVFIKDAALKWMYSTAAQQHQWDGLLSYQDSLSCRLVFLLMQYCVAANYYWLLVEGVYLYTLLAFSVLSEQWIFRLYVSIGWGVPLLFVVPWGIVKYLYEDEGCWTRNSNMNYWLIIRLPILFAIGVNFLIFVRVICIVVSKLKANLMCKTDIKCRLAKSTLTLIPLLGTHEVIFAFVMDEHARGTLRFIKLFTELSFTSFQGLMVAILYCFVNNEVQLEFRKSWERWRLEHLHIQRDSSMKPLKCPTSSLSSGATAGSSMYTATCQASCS

[3] = biological target: T2, gastric inhibitory peptide receptor (GIPR) (Homo sapiens, UniProt P48546); experiment: cAMP pharmacological functional assay in presence of casein, hGIPR; format: cell-based; settings: HEK293 cells expressing hGIPR, 0.1% Casein, geometric mean; read-out: hGIPR cAMP Rel EC50 nM (SEM, n)
T2 sequence (P48546 22-466): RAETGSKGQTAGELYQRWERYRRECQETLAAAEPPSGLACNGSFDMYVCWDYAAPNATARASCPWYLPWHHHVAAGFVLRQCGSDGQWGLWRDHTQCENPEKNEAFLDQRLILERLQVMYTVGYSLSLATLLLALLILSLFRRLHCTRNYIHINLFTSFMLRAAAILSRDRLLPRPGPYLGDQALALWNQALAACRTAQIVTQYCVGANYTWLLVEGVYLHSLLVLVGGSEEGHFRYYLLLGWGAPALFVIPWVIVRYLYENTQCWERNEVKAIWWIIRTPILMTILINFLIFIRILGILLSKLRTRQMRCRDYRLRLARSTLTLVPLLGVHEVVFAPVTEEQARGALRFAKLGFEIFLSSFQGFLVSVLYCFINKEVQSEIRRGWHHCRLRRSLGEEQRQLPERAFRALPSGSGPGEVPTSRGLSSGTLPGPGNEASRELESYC

[4] = biological target: T3, human GIP receptor (Homo sapiens, UniProt P48546); experiment: [125I]-GIP binding (SPA), human GIP receptor; settings: read-out: hGIPR Ki, nM (SEM, n)
T3 construct: expressed in transfected cells; crude membranes
T3 sequence (P48546 22-466): T2 sequence (P48546 22-466)

[5] = biological target: human GLP-1R (Homo sapiens, UniProt P43220); experiment: [125I]-GLP-1 binding (SPA), human GLP-1 receptor; design: expressed in transfected cells; crude membranes; settings: read-out: hGLP1R Ki, (nM) (SEM, n)
Chain of human GLP-1R (P43220 24-463): as the sequence (P43220 24-463) above
Outline: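 Membranes: hypotonic lysis (50 mM Tris HCl, pH 7.5, protease inhibitors), Potter-Elvehjem homogenization, high-speed pellet (35000×g 1 h or 25000×g 30 min, 4° C.). Buffer: 25 mM HEPES pH 7.4, 2.5 mM CaCl2, 1 mM MgCl2. Four-parameter IC50 fit; Ki as geometric mean ± SEM.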

SMILES | Ki [1] | EC50 [2] | EC50 [3] | Ki [4] | Ki [5]
CC[C@H](C)[C@H](NC(=O)[C@H](Cc1ccccc1)NC(=O)[C@H](C)NC(=O)[C@H](CCC(N)=O)NC(=O)[C@H](CCC(N)=O)NC(=O)[C@H](C)NC(=O)[C@H](CCCCNC(=O)COCCOCCNC(=O)COCCOCCNC(=O)CC[C@H](NC(=O)CCCCCCCCCCCCCCCCCCC(=O)O)C(=O)O)NC(=O)[C@H](CCC(=O)O)NC(=O)[C@H](CC(=O)O)NC(=O)[C@H](CC(C)C)NC(=O)[C@](C)(CC(C)C)NC(=O)[C@@H](NC(=O)[C@H](CO)NC(=O)[C@H](Cc1ccc(O)cc1)NC(=O)[C@H](CC(=O)O)NC(=O)[C@H](CO)NC(=O)[C@@H](NC(=O)[C@](C)(Cc1ccccc1)NC(=O)[C@@H](NC(=O)CNC(=O)[C@H](CCC(=O)O)NC(=O)C(C)(C)NC(=O)[C@@H](N)Cc1ccc(O)cc1)[C@@H](C)O)[C@@H](C)O)[C@@H](C)CC)C(=O)N[C@@H](CCC(=O)O)C(=O)N[C@@H](Cc1ccc(O)cc1)C(=O)N[C@@H](CC(C)C)C(=O)N[C@H](C(=O)N[C@@H](CCC(=O)O)C(=O)NC(C)(C)C(=O)NCC(=O)N1CCC[C@H]1C(=O)N[C@@H](CO)C(=O)N[C@@H](CO)C(=O)NCC(=O)N[C@@H](C)C(=O)N1CCC[C@H]1C(=O)N1CCC[C@H]1C(=O)N1CCC[C@H]1C(=O)N[C@@H](CO)C(N)=O)[C@@H](C)CC [Example 122] (H-Y[Aib]EGT[αMeF]TSDYSI[αMeL]LDEK([AEEA-AEEA-γGlu-C20 diacid])AQQAFIEYLIE[Aib]GPSSGAPPPS-NH2) | 43.3 nM | 0.076 nM | 0.0923 nM | 0.19 nM | 3.36 nM
CC[C@H](C)[C@H](NC(=O)[C@H](CC(C)C)NC(=O)[C@H](Cc1ccc(O)cc1)NC(=O)[C@H](CCC(=O)O)NC(=O)[C@@H](NC(=O)[C@H](Cc1ccccc1)NC(=O)[C@H](CCC(=O)O)NC(=O)C(C)(C)NC(=O)[C@H](CCC(N)=O)NC(=O)[C@H](C)NC(=O)[C@H](CCCCNC(=O)COCCOCCNC(=O)COCCOCCNC(=O)CC[C@H](NC(=O)CCCCCCCCCCCCCCCCCCC(=O)O)C(=O)O)NC(=O)[C@H](CCC(=O)O)NC(=O)[C@H](CC(=O)O)NC(=O)[C@H](CC(C)C)NC(=O)[C@](C)(CC(C)C)NC(=O)[C@@H](NC(=O)[C@H](CO)NC(=O)[C@H](Cc1ccc(O)cc1)NC(=O)[C@H](CC(=O)O)NC(=O)[C@H](CO)NC(=O)[C@@H](NC(=O)[C@](C)(Cc1ccccc1)NC(=O)[C@@H](NC(=O)CNC(=O)[C@H](CCC(=O)O)NC(=O)C(C)(C)NC(=O)[C@@H](N)Cc1ccc(O)cc1)[C@@H](C)O)[C@@H](C)O)[C@@H](C)CC)[C@@H](C)CC)C(=O)N[C@@H](CCC(=O)O)C(=O)NCC(=O)NCC(=O)N1CCC[C@H]1C(=O)N[C@@H](CO)C(=O)N[C@@H](CO)C(=O)NCC(N)=O [Example 124] (H-Y[Aib]EGT[αMeF]TSDYSI[αMeL]LDEK([AEEA-AEEA-γGlu-C20 diacid])AQ[Aib]EFIEYLIEGGPSSG-NH2) | 41.5 nM | 0.0475 nM | 0.0762 nM | 0.0424 nM | 4.87 nM
CC[C@H](C)[C@H](NC(=O)[C@H](CC(C)C)NC(=O)[C@H](Cc1ccc(O)cc1)NC(=O)[C@H](CCC(=O)O)NC(=O)[C@@H](NC(=O)[C@H](Cc1ccccc1)NC(=O)[C@H](C)NC(=O)C(C)(C)NC(=O)[C@H](CCC(N)=O)NC(=O)[C@H](C)NC(=O)[C@H](CCCCNC(=O)COCCOCCNC(=O)COCCOCCNC(=O)CC[C@H](NC(=O)CC[C@H](NC(=O)CCCCCCCCCCCCCCCCCCC(=O)O)C(=O)O)C(=O)O)NC(=O)[C@H](CCCCN)NC(=O)[C@H](CC(=O)O)NC(=O)[C@H](CC(C)C)NC(=O)[C@](C)(CC(C)C)NC(=O)[C@@H](NC(=O)[C@H](CO)NC(=O)[C@H](Cc1ccc(O)cc1)NC(=O)[C@H](CC(=O)O)NC(=O)[C@H](CO)NC(=O)[C@@H](NC(=O)[C@](C)(Cc1ccccc1)NC(=O)[C@@H](NC(=O)CNC(=O)[C@H](CCC(=O)O)NC(=O)C(C)(C)NC(=O)[C@@H](N)Cc1ccc(O)cc1)[C@@H](C)O)[C@@H](C)O)[C@@H](C)CC)[C@@H](C)CC)C(=O)N[C@@H](CCC(=O)O)C(=O)NCC(=O)NCC(=O)N1CCC[C@H]1C(=O)N[C@@H](CO)C(=O)N[C@@H](CO)C(=O)NCC(=O)N[C@@H](C)C(=O)N1CCC[C@H]1C(=O)N1CCC[C@H]1C(=O)N1CCC[C@H]1C(=O)N[C@@H](CO)C(N)=O [Example 125] | 54.4 nM | 0.0478 nM | 0.0381 nM | 0.0624 nM | 3.19 nM
CC[C@H](C)[C@H](NC(=O)[C@H](CC(C)C)NC(=O)[C@H](Cc1ccc(O)cc1)NC(=O)[C@H](CCC(=O)O)NC(=O)[C@@H](NC(=O)[C@H](Cc1ccccc1)NC(=O)[C@H](C)NC(=O)C(C)(C)NC(=O)[C@H](CCC(N)=O)NC(=O)[C@H](C)NC(=O)[C@H](CCCCNC(=O)COCCOCCNC(=O)COCCOCCNC(=O)CC[C@H](NC(=O)CCCCCCCCCCCCCCCCCCC(=O)O)C(=O)O)NC(=O)[C@H](CCCCN)NC(=O)[C@H](CC(=O)O)NC(=O)[C@H](CC(C)C)NC(=O)[C@](C)(CC(C)C)NC(=O)[C@@H](NC(=O)[C@H](CO)NC(=O)[C@H](Cc1ccc(O)cc1)NC(=O)[C@H](CC(=O)O)NC(=O)[C@H](CO)NC(=O)[C@@H](NC(=O)[C@](C)(Cc1ccccc1)NC(=O)[C@@H](NC(=O)CNC(=O)[C@H](CCC(=O)O)NC(=O)C(C)(C)NC(=O)[C@@H](N)Cc1ccc(O)cc1)[C@@H](C)O)[C@@H](C)O)[C@@H](C)CC)[C@@H](C)CC)C(=O)N[C@@H](CCC(=O)O)C(=O)N[C@@H](C)C(=O)NCC(=O)N1CCC[C@H]1C(=O)N[C@@H](CO)C(=O)N[C@@H](CO)C(=O)NCC(=O)N[C@@H](C)C(=O)N1CCC[C@H]1C(=O)N1CCC[C@H]1C(=O)N1CCC[C@H]1C(=O)N[C@@H](CO)C(N)=O [Example 126] (H-Y[Aib]EGT[αMeF]TSDYSI[αMeL]LDKK([AEEA-AEEA-γGlu-C20 diacid])AQ[Aib]AFIEYLIEAGPSSGAPPPS-NH2; N-terminus assumed) | 101 nM | 0.0715 nM | 0.0685 nM | 0.0644 nM | 1.46 nM
CC[C@H](C)[C@H](NC(=O)[C@H](CC(C)C)NC(=O)[C@H](Cc1ccc(O)cc1)NC(=O)[C@H](CCC(=O)O)NC(=O)[C@@H](NC(=O)[C@H](Cc1ccccc1)NC(=O)[C@H](C)NC(=O)C(C)(C)NC(=O)[C@H](CCC(N)=O)NC(=O)[C@H](C)NC(=O)[C@H](CCCCNC(=O)COCCOCCNC(=O)COCCOCCNC(=O)CC[C@H](NC(=O)CCCCCCCCCCCCCCCCCCC(=O)O)C(=O)O)NC(=O)[C@H](CCCCN)NC(=O)[C@H](CC(=O)O)NC(=O)[C@H](CC(C)C)NC(=O)[C@H](CC(C)C)NC(=O)[C@@H](NC(=O)[C@H](CO)NC(=O)[C@@H](NC(=O)[C@H](CC(=O)O)NC(=O)[C@H](CO)NC(=O)[C@@H](NC(=O)[C@](C)(Cc1ccccc1)NC(=O)[C@@H](NC(=O)CNC(=O)[C@H](CCC(=O)O)NC(=O)C(C)(C)NC(=O)[C@@H](N)Cc1ccc(O)cc1)[C@@H](C)O)[C@@H](C)O)[C@@H](C)CC)[C@@H](C)CC)[C@@H](C)CC)C(=O)N[C@@H](CCC(=O)O)C(=O)NCC(=O)NCC(=O)N1CCC[C@H]1C(=O)N[C@@H](CO)C(=O)N[C@@H](CO)C(=O)NCC(=O)N[C@@H](C)C(=O)N1CCC[C@H]1C(=O)N1CCC[C@H]1C(=O)N1CCC[C@H]1C(=O)N[C@@H](CO)C(N)=O [Example 127] (H-Y[Aib]EGT[αMeF]TSDISILLDKK([AEEA-AEEA-γGlu-C20 diacid])AQ[Aib]AFIEYLIEGGPSSGAPPPS-NH2; N-terminus assumed) | 43.6 nM | 0.145 nM | 0.158 nM | 0.126 nM | 1.86 nM
